Consider one molecule from patent US20240018125A1, “CYCLIC ISOTHIOUREA DERIVATIVES AS CXCR4 MODULATORS” (ERMIUM THERAPEUTICS, priority 2020, published 2024).

Where a name gives a salt, the structure may show the parent alone.

In the assay the target is T1, human CXCR4 (hCXCR4) receptor (Homo sapiens, UniProt P61073).
T1 construct: expressed in transfected cells; host or cells: HEK-293 T cells, transient co-transfection with polyethylenimine
Put plainly: BRET assay of antagonist activity on the CXCR4-CXCL12 signaling pathway (Gαi2 recruitment) in HEK-293 T cells. The class given is cell-based. The note with it: HEK-293 T cells with hCXCR4, Gαi2 and BRET biosensors; 10 min with compound, then EC80 CXCL12. The procedure: Examples of the present invention were tested for their antagonist activity on human CXCR4 (hCXCR4) receptor transiently over-expressed in HEK-293 T cells. Compounds exert antagonist activity if they decrease the action of CXCL12 on the receptor.
The specific effector (luciferase tagged: BRET donor) recruited at the membrane will be in close proximity to a plasma membrane anchor (GFP tagged: BRET acceptor) to induce a BRET signal (Hamdan et a1, 2006, Chapter 5, Current Protocols in Neuroscience).
HEK-293 T cells are maintained in Dulbecco's Modified Eagle's Medium supplemented with 10% Foetal Calf Serum, 1% Penicillin/Streptomycin at 37° C./5% CO2. Cells are co-transfected using polyethylenimine (25 kDa linear) with several DNA plasmids encoding: hCXCR4; Gai2; an intracellular effector fused to luciferase (BRET donor); a plasma membrane effector fused to GFP (BRET acceptor). After transfection, cells are cultured for 48 h at 37° C./5% CO2. On the day of the assay, cells are detached using trypsin 0.05%, resuspended in assay buffer (1.8 mM CaCl2, 1 mM MgCl2, 2.7 mM KCl, 137 mM NaCl, 0.4 mM NaH2PO4, 5.5 mM D-Glucose, 11.9 mM NaHCO3, 25 mM Hepes) and seeded in 384 well plate at a density of 20,000 cells per well. Then, plates are equilibrated 3.5 h at 37° C. before adding compounds. Compounds and luciferase substrate are added to the cells using an automated device (Freedom Evo®, Tecan) and BRET readings are collected on EnVision (PerkinElmer) with specific filters (410 nm BW 80 nm, 515 nm BW 30 nm).
Cells are first incubated for 10 minutes with the compound alone. Then, cells are stimulated by an EC80 CXCL12 concentration for additional 10 minutes and luminescence is recorded. EC80 CXCL12 concentration is the concentration giving 80% of the maximal CXCL12 response. Antagonist activity is evaluated in comparison to basal signals evoked by EC80 CXCL12 alone.
For IC50 determination, a dose-response test is performed using 20 concentrations (ranging over 6 logs) of each compound. Dose-response curves are fitted using the sigmoidal dose-response (variable slope) analysis in GraphPad Prism software (GraphPad Software) and IC50 of antagonist activity is calculated. Dose-response experiments are performed in duplicate, in two independent experiments.
HEK-293 T cells were transfected to allow measuring the recruitment of Gai2 proteins involved in intracellular signaling by human CXCR4 receptor (hCXCR4) via the BRET technology. Cells were then incubated with various concentrations of examples of the invention before stimulation with an EC80 concentration of CXCL12.

T1 sequence (P61073 whole entry): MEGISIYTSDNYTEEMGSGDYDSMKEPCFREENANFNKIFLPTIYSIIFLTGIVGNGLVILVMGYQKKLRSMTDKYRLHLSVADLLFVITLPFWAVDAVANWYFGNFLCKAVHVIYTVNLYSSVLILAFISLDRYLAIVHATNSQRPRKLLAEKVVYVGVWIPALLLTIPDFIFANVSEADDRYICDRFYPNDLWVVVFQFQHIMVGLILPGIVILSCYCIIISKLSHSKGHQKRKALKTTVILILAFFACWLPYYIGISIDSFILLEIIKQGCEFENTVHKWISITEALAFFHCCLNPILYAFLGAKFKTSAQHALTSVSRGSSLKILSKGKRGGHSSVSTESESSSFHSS

Turning to `Clc1ccc2c(c1)CN=C(SCCCCN1CCCC1)N2` [Example 60, 6-chloro-2-((4-(pyrrolidin-1-yl)butyl)thio)-1,4-dihydroquinazoline dihydrochloride], the IC50 is at least 15 µM.

As a reminder, the IC50 is the point on the concentration scale where inhibition reaches its midpoint.
